Assay results as given in patent US9302999B2, “Substituted triazoles as herbicides” (E. I. DU PONT DE NEMOURS AND COMPANY, priority 2012, dated 2016).
Read-outs that look alike come from different tables or passages of the source.

What was measured:
Assay type in all cases: in vivo
[1] = system: crabgrass, large (large crabgrass, Digitaria sanguinalis); assay: Test A pre-/postemergence: crabgrass, large; conditions: for pest or weed control at 125 g/ha / pest or weed control at 500 g/ha: Digitaria sanguinalis, 240 h
Summary of the method: (§1)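 Visual 0–100 injury ratings (0 no effect, 100 complete control) taken about ten days after treatment, relative to untreated controls. Preemergence treatment was a directed soil spray; postemergence plants were 2–10 cm tall at one- to two-leaf stage. Soil: loam/sand blend.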

corn (Zea mays) = assay: Test A pre-/postemergence: corn
Summary of the method: as §1

[2] = system: morningglory (Ipomoea spp.); assay: Test A pre-/postemergence: morningglory; conditions: for pest or weed control at 125 g/ha / pest or weed control at 500 g/ha: Ipomoea, 240 h
Summary of the method: as §1

[3] = system: foxtail, giant (giant foxtail, Setaria faberii); assay: Test A pre-/postemergence: foxtail, giant; conditions: for pest or weed control at 125 g/ha / pest or weed control at 500 g/ha: Setaria faberi, 240 h
Excerpt: (§2) Seeds of barnyardgrass (Echinochloa crus-galli), crabgrass, large (large crabgrass, Digitaria sanguinalis), foxtail, giant (giant foxtail, Setaria faberii), morningglory (Ipomoea spp.), pigweed (Amaranthus retroflexus), velvetleaf (Abutilon theophrasti), wheat (Triticum aestivum), and corn (Zea mays) were planted into a blend of loam soil and sand and treated preemergence with a directed soil spray using test chemicals formulated in a non-phytotoxic solvent mixture which included a surfactant. At the same time these species were also treated with postemergence applications of test chemicals formulated in the same manner.
(§3) Plants ranged in height from two to ten cm and were in the one- to two-leaf stage for the postemergence treatment. Treated plants and untreated controls were maintained in a greenhouse for approximately ten days, after which time all treated plants were compared to untreated controls and visually evaluated for injury. Plant response ratings, summarized in Table A, are based on a 0 to 100 scale where 0 is no effect and 100 is complete control. A dash (-) response means no test result.

[4] = system: wheat (Triticum aestivum); assay: Test A pre-/postemergence: wheat; conditions: for plant injury at 125 g/ha / plant injury at 500 g/ha: Triticum aestivum, 240 h
Summary of the method: as §1

[5] = system: barnyardgrass (Echinochloa crus-galli); assay: Test A pre-/postemergence: barnyardgrass; conditions: for pest or weed control at 125 g/ha / pest or weed control at 500 g/ha: Echinochloa crus-galli, 240 h
Excerpt: as §2, §3

[6] = system: velvetleaf (Abutilon theophrasti); assay: Test A pre-/postemergence: velvetleaf; conditions: for pest or weed control at 125 g/ha / pest or weed control at 500 g/ha: Abutilon theophrasti, 240 h
Summary of the method: as §1

[7] = system: pigweed (Amaranthus retroflexus); assay: Test A pre-/postemergence: pigweed; conditions: for pest or weed control at 125 g/ha / pest or weed control at 500 g/ha: Amaranthus retroflexus, 240 h
Summary of the method: as §1

[8] = Postemergence, 125 g ai/ha, 0 to 100 scale, 0 is no effect, 100 is complete control
[9] = Postemergence, 500 g ai/ha, visual rating on 0 to 100 scale (0 no effect, 100 complete control), approximately ten days
[10] = Preemergence, 125 g ai/ha, 0 to 100 scale where 0 is no effect and 100 is complete control
[11] = Preemergence, 500 g ai/ha, 0 to 100 scale (0 no effect, 100 complete control)

Question: Which results are given for `OCc1nn(-c2ccc(C(F)(F)F)cc2)nc1Oc1cccc(OC(F)(F)F)c1` [Compound 114, 5-[3-(trifluoromethoxy)phenoxy]-2-[4-(trifluoromethyl)phenyl]-2H-1,2,3-triazole-4-methanol]?
Answer: pest or weed control at 125 g/ha ([1]; post-emergence, Postemergence, 125 g ai/ha, 0 to 100 scale, 0 is no effect, 100 is complete control, read-out: Crabgrass, Large plant response rating): 30%; pest or weed control at 500 g/ha ([1]; post-emergence, Postemergence, 500 g ai/ha, visual rating on 0 to 100 scale (0 no effect, 100 complete control), approximately ten days, read-out: Crabgrass, Large plant response rating): 70%; pest or weed control at 125 g/ha ([1]; pre-emergence, Preemergence, 125 g ai/ha, 0 to 100 scale where 0 is no effect and 100 is complete control, read-out: Plant response rating, Crabgrass, Large): 0%; pest or weed control at 500 g/ha ([1]; pre-emergence, Preemergence, 500 g ai/ha, 0 to 100 scale (0 no effect, 100 complete control), read-out: Plant response rating, Crabgrass, Large): 30%; plant injury at 125 g/ha (corn (Zea mays); Zea mays, post-emergence, 240 h, Postemergence, 125 g ai/ha, 0 to 100 scale, 0 is no effect, 100 is complete control, read-out: Corn plant response rating): 20%; plant injury at 500 g/ha (corn (Zea mays); Zea mays, post-emergence, 240 h, Postemergence, 500 g ai/ha, visual rating on 0 to 100 scale (0 no effect, 100 complete control), approximately ten days, read-out: Corn plant response rating): 30%; Corn plant response rating (crop injury, 0 = no effect, 100 = complete kill) at 125 g/ha (corn (Zea mays); Zea mays, pre-emergence, 240 h, Preemergence, 125 g ai/ha, 0 to 100 scale where 0 is no effect and 100 is complete control): 0%; Corn plant response rating (crop injury, 0 = no effect, 100 = complete kill) at 500 g/ha (corn (Zea mays); Zea mays, pre-emergence, 240 h, Preemergence, 500 g ai/ha, 0 to 100 scale (0 no effect, 100 complete control)): 0%; pest or weed control at 125 g/ha ([2]; post-emergence, Postemergence, 125 g ai/ha, 0 to 100 scale, 0 is no effect, 100 is complete control, read-out: Morningglory plant response rating): 60%; pest or weed control at 500 g/ha ([2]; post-emergence, Postemergence, 500 g ai/ha, visual rating on 0 to 100 scale (0 no effect, 100 complete control), approximately ten days, read-out: Morningglory plant response rating): 90%; pest or weed control at 125 g/ha ([2]; pre-emergence, Preemergence, 125 g ai/ha, 0 to 100 scale where 0 is no effect and 100 is complete control, read-out: Plant response rating, Morningglory): 10%; pest or weed control at 500 g/ha ([2]; pre-emergence, Preemergence, 500 g ai/ha, 0 to 100 scale (0 no effect, 100 complete control), read-out: Plant response rating, Morningglory): 30%; pest or weed control at 125 g/ha ([3]; post-emergence, Postemergence, 125 g ai/ha, 0 to 100 scale, 0 is no effect, 100 is complete control, read-out: Foxtail, Giant plant response rating): 30%; pest or weed control at 500 g/ha ([3]; post-emergence, Postemergence, 500 g ai/ha, visual rating on 0 to 100 scale (0 no effect, 100 complete control), approximately ten days, read-out: Foxtail, Giant plant response rating): 40%; pest or weed control at 125 g/ha ([3]; pre-emergence, Preemergence, 125 g ai/ha, 0 to 100 scale where 0 is no effect and 100 is complete control, read-out: Plant response rating, Foxtail, Giant): 0%; pest or weed control at 500 g/ha ([3]; pre-emergence, Preemergence, 500 g ai/ha, 0 to 100 scale (0 no effect, 100 complete control), read-out: Plant response rating, Foxtail, Giant): 10%; plant injury at 125 g/ha ([4]; post-emergence, Postemergence, 125 g ai/ha, 0 to 100 scale, 0 is no effect, 100 is complete control, read-out: Wheat plant response rating): 10%; plant injury at 500 g/ha ([4]; post-emergence, Postemergence, 500 g ai/ha, visual rating on 0 to 100 scale (0 no effect, 100 complete control), approximately ten days, read-out: Wheat plant response rating): 30%; plant injury at 125 g/ha ([4]; pre-emergence, Preemergence, 125 g ai/ha, 0 to 100 scale where 0 is no effect and 100 is complete control, read-out: Plant response rating, Wheat): 0%; plant injury at 500 g/ha ([4]; pre-emergence, Preemergence, 500 g ai/ha, 0 to 100 scale (0 no effect, 100 complete control), read-out: Plant response rating, Wheat): 0%; pest or weed control at 125 g/ha ([5]; post-emergence, Postemergence, 125 g ai/ha, 0 to 100 scale, 0 is no effect, 100 is complete control, read-out: Barnyardgrass plant response rating): 30%; pest or weed control at 500 g/ha ([5]; post-emergence, Postemergence, 500 g ai/ha, visual rating on 0 to 100 scale (0 no effect, 100 complete control), approximately ten days, read-out: Barnyardgrass plant response rating): 30%; pest or weed control at 125 g/ha ([5]; pre-emergence, Preemergence, 125 g ai/ha, 0 to 100 scale where 0 is no effect and 100 is complete control, read-out: Plant response rating, Barnyardgrass): 0%; pest or weed control at 500 g/ha ([5]; pre-emergence, Preemergence, 500 g ai/ha, 0 to 100 scale (0 no effect, 100 complete control), read-out: Plant response rating, Barnyardgrass): 0%; pest or weed control at 125 g/ha ([6]; post-emergence, Postemergence, 125 g ai/ha, 0 to 100 scale, 0 is no effect, 100 is complete control, read-out: Velvetleaf plant response rating): 30%; pest or weed control at 500 g/ha ([6]; post-emergence, Postemergence, 500 g ai/ha, visual rating on 0 to 100 scale (0 no effect, 100 complete control), approximately ten days, read-out: Velvetleaf plant response rating): 50%; pest or weed control at 125 g/ha ([6]; pre-emergence, Preemergence, 125 g ai/ha, 0 to 100 scale where 0 is no effect and 100 is complete control, read-out: Plant response rating, Velvetleaf): 0%; pest or weed control at 500 g/ha ([6]; pre-emergence, Preemergence, 500 g ai/ha, 0 to 100 scale (0 no effect, 100 complete control), read-out: Plant response rating, Velvetleaf): 10%; pest or weed control at 125 g/ha ([7]; post-emergence, Postemergence, 125 g ai/ha, 0 to 100 scale, 0 is no effect, 100 is complete control, read-out: Pigweed plant response rating): 80%; pest or weed control at 500 g/ha ([7]; post-emergence, Postemergence, 500 g ai/ha, visual rating on 0 to 100 scale (0 no effect, 100 complete control), approximately ten days, read-out: Pigweed plant response rating): 90%; pest or weed control at 125 g/ha ([7]; pre-emergence, Preemergence, 125 g ai/ha, 0 to 100 scale where 0 is no effect and 100 is complete control, read-out: Plant response rating, Pigweed): 0%; pest or weed control at 500 g/ha ([7]; pre-emergence, Preemergence, 500 g ai/ha, 0 to 100 scale (0 no effect, 100 complete control), read-out: Plant response rating, Pigweed): 10%

Question: What does the source list for `Cc1nn(-c2ccc(F)cc2)nc1Oc1cc(C(F)(F)F)ccn1` [Compound 128]?
Answer: Crabgrass, Large plant response rating [1, 8]: 10; Crabgrass, Large plant response rating [1, 9]: 20; Plant response rating, Crabgrass, Large [1, 10]: 0; Plant response rating, Crabgrass, Large [1, 11]: 20; Corn plant response rating (corn (Zea mays); [8]): 10; Corn plant response rating (corn (Zea mays); [9]): 10; Plant response rating, Corn (corn (Zea mays); [10]): 0; Plant response rating, Corn (corn (Zea mays); [11]): 0; Morningglory plant response rating [2, 8]: 30; Morningglory plant response rating [2, 9]: 30; Plant response rating, Morningglory [2, 10]: 0; Plant response rating, Morningglory [2, 11]: 20; Foxtail, Giant plant response rating [3, 8]: 0; Foxtail, Giant plant response rating [3, 9]: 10; Plant response rating, Foxtail, Giant [3, 10]: 0; Plant response rating, Foxtail, Giant [3, 11]: 20; Wheat plant response rating [4, 8]: 0; Wheat plant response rating [4, 9]: 0; Plant response rating, Wheat [4, 10]: 0; Plant response rating, Wheat [4, 11]: 0; Barnyardgrass plant response rating [5, 8]: 0; Barnyardgrass plant response rating [5, 9]: 20; Plant response rating, Barnyardgrass [5, 10]: 0; Plant response rating, Barnyardgrass [5, 11]: 0; Velvetleaf plant response rating [6, 8]: 20; Velvetleaf plant response rating [6, 9]: 30; Plant response rating, Velvetleaf [6, 10]: 0; Plant response rating, Velvetleaf [6, 11]: 0; Pigweed plant response rating [7, 8]: 30; Pigweed plant response rating [7, 9]: 40; Plant response rating, Pigweed [7, 10]: 0; Plant response rating, Pigweed [7, 11]: 0
